In ChEMBL document CHEMBL1671744 (Antimicrob Agents Chemother, 2010):
≈ marks a conversion by molar mass, not a printed value. Where a SMILES comes first, the peptide text is derived from it. [ ]: non-standard residue; d: D form. The star is where a group is joined. Undecanoyl = CCCCCCCCCCC(=O)*; Nphe = O=C(O)CNCc1ccccc1; OBn = c1ccc(CO*)cc1

Key:
[1] = tested on: Escherichia coli; test: Antimicrobial activity against Escherichia coli; type: functional
[2] = tested on: Pseudomonas aeruginosa; test: microbe, parasite or virus in culture; type: functional
[3] = tested on: Staphylococcus aureus; test: Antimicrobial activity against Staphylococcus aureus; type: functional
[4] = erythrocyte
[5] = in vitro
[6] = tested on: Aspergillus fumigatus; test: Antimicrobial activity against Aspergillus fumigatus; type: functional
[7] = tested on: Bacillus subtilis; test: Antimicrobial activity against Bacillus subtilis; type: functional

Row | Structure (SMILES) | MIC [1] | MIC [3] | MHC [4] | also measured
1 | CC[C@@H](C)[C@@H](NC(=O)[C@@H](C)NC(=O)[C@@H](CCCCN)NC(=O)[C@@H](CC(C)C)NC(=O)[C@@H](C)NC(=O)[C@H](NC(=O)[C@@H](Cc1cnc[nH]1)NC(=O)[C@@H](CC(C)C)NC(=O)[C@H](NC(=O)[C@H](NC(=O)[C@@H](CCCCN)NC(=O)[C@@H](CCCCN)NC(=O)[C@@H](C)NC(=O)[C@@H](CO)NC(=O)[C@@H](CCCCN)NC(=O)[C@@H](Cc1ccccc1)NC(=O)[C@H](NC(=O)[C@@H](CCCCN)NC(=O)[C@@H](CC(C)C)NC(=O)[C@@H](Cc1ccccc1)NC(=O)[C@@H](CO)NC(=O)[C@@H](CCCCN)NC(=O)[C@@H](Cc1c[nH]c2ccccc12)NC(=O)[C@@H](CCCCN)NC(C)=O)[C@H](C)O)[C@H](C)O)C(C)C)[C@H](C)O)C(=O)N[C@H](CO)C(=O)N[C@H](CO)C(N)=O | 1.1 µM (≈ 3.29 µg/mL) | – | – | MIC [2]: 5.3 µM (≈ 15.9 µg/mL)
2 | CC[C@H](C)[C@H](NC(=O)[C@H](CCCCN)NC(=O)[C@@H](NC(=O)[C@H](CCC(N)=O)NC(=O)[C@@H](N)CCCNC(=N)N)[C@@H](C)CC)C(=O)N[C@@H](Cc1c[nH]c2ccccc12)C(=O)N[C@@H](Cc1ccccc1)C(=O)N[C@@H](CCC(N)=O)C(=O)N[C@@H](CC(N)=O)C(=O)N[C@@H](CCCNC(=N)N)C(=O)N[C@@H](CCCNC(=N)N)C(=O)N[C@@H](CCSC)C(=O)N[C@@H](CCCCN)C(=O)N[C@@H](Cc1c[nH]c2ccccc12)C(=O)N[C@@H](CCCCN)C(=O)N[C@@H](CCCCN)C(=O)NCCCC[C@H](NC(=O)[C@H](CCCCN)NC(=O)[C@H](CCCCN)NC(=O)[C@H](Cc1c[nH]c2ccccc12)NC(=O)[C@H](CCCCN)NC(=O)[C@H](CCSC)NC(=O)[C@H](CCCNC(=N)N)NC(=O)[C@H](CCCNC(=N)N)NC(=O)[C@H](CC(N)=O)NC(=O)[C@H](CCC(N)=O)NC(=O)[C@H](Cc1ccccc1)NC(=O)[C@H](Cc1c[nH]c2ccccc12)NC(=O)[C@@H](NC(=O)[C@H](CCCCN)NC(=O)[C@@H](NC(=O)[C@H](CCC(N)=O)NC(=O)[C@@H](N)CCCNC(=N)N)[C@@H](C)CC)[C@@H](C)CC)C(N)=O | 2 µM (≈ 9.21 µg/mL) | 1 µM (≈ 4.6 µg/mL) | 25 µM | –
3 | CC[C@H](C)[C@H](NC(=O)[C@H](CC(C)C)NC(=O)[C@H](CCCCN)NC(=O)[C@H](CC(C)C)NC(=O)[C@H](CC(C)C)NC(=O)[C@@H](NC(=O)[C@H](Cc1cnc[nH]1)NC(=O)[C@H](CC(C)C)NC(=O)[C@@H](NC(=O)[C@@H](NC(=O)[C@H](CCCCN)NC(=O)[C@H](CCCCN)NC(=O)[C@H](CC(C)C)NC(=O)[C@H](CO)NC(=O)[C@H](CCCCN)NC(=O)[C@H](Cc1ccccc1)NC(=O)[C@@H](NC(=O)[C@H](CCCCN)NC(=O)[C@H](CC(C)C)NC(=O)[C@H](Cc1ccccc1)NC(=O)[C@H](CO)NC(=O)[C@H](Cc1c[nH]c2ccccc12)NC(=O)[C@H](CCCCN)NC(C)=O)[C@@H](C)O)[C@@H](C)O)C(C)C)[C@@H](C)O)C(=O)N[C@@H](CO)C(=O)N[C@@H](CO)C(N)=O | – | – | 1.3 µM | MIC [2]: 168 µM (≈ 502 µg/mL)
4 | N=C(N)NCCC[C@H](NC(=O)[C@H](Cc1c[nH]c2ccccc12)NCCCC[C@H](N[C@@H](Cc1c[nH]c2ccccc12)C(=O)N[C@@H](CCCNC(=N)N)C(=O)O)C(=O)NCCCC[C@H](NC(=O)[C@H](CCCCN[C@@H](Cc1c[nH]c2ccccc12)C(=O)N[C@@H](CCCNC(=N)N)C(=O)O)N[C@@H](Cc1c[nH]c2ccccc12)C(=O)N[C@@H](CCCNC(=N)N)C(=O)O)C(=O)NCCC(N)=O)C(=O)O | 2.4 µM (≈ 4.43 µg/mL) | 8.7 µM (≈ 16.1 µg/mL) | – | HC50 ([5]; red blood cells): 760 µM
5 | CCCCCCCCCCCCCCCC(=O)N[C@@H](CCCCN)C(=O)N[C@@H](CCCCN)C(=O)N[C@@H](CCCCN)C(N)=O | 1.56 µM (≈ 0.998 µg/mL) | – | – | MIC [6]: 3.1 µM (≈ 1.98 µg/mL); HC50 ([5]; red blood cells): 100 µM
6 | N=C(N)NCCC[C@H](NC(=O)[C@H](Cc1c[nH]c2ccccc12)NC(=O)[C@H](CCCNC(=N)N)NC(=O)[C@H](Cc1c[nH]c2ccccc12)NC(=O)[C@H](CCCNC(=N)N)NC(=O)[C@H](Cc1c[nH]c2ccccc12)NC(=O)[C@H](CCCNC(=N)N)NC(=O)[C@H](Cc1c[nH]c2ccccc12)NC(=O)[C@@H](N)CCCNC(=N)N)C(=O)N[C@@H](Cc1c[nH]c2ccccc12)C(N)=O | 6.2 µM (≈ 10.7 µg/mL) | 3.6 µM (≈ 6.22 µg/mL) | – | HC50 ([5]; erythrocyte): 76 µM
7 | CC[C@H](C)[C@H](NC(=O)[C@H](C)NC(=O)[C@H](CCCCN)NC(=O)[C@H](C)NC(=O)[C@H](C)NC(=O)[C@@H](NC(=O)[C@H](Cc1cnc[nH]1)NC(=O)[C@H](CC(C)C)NC(=O)[C@@H](NC(=O)[C@@H](NC(=O)[C@H](CCCCN)NC(=O)[C@H](CCCCN)NC(=O)[C@H](C)NC(=O)[C@H](CO)NC(=O)[C@H](CCCCN)NC(=O)[C@H](Cc1ccccc1)NC(=O)[C@@H](NC(=O)[C@H](CCCCN)NC(=O)[C@H](C)NC(=O)[C@H](Cc1ccccc1)NC(=O)[C@H](CO)NC(=O)[C@H](CCCCN)NC(=O)[C@H](Cc1c[nH]c2ccccc12)NC(=O)[C@H](CCCCN)NC(C)=O)[C@@H](C)O)[C@@H](C)O)C(C)C)[C@@H](C)O)C(=O)N[C@@H](CO)C(=O)N[C@@H](CO)C(N)=O (Ac-KWKSFAKTFKSAKKTVLHTAAKAISS-NH2) | – | – | 336 µM | MIC [2]: 168 µM (≈ 488 µg/mL)
8 | CC(C)C[C@H](NC(=O)[C@H](CC(C)C)NC(=O)[C@H](CCCNC(=N)N)NC(=O)[C@H](Cc1cnc[nH]1)NC(=O)[C@@H](NC(=O)[C@H](CCCNC(=N)N)NC(=O)CNC(=O)[C@@H](NC(=O)[C@@H]1CCCN1C(=O)[C@@H](N)Cc1ccccc1)C(C)C)C(C)C)C(=O)N[C@@H](CCCNC(=N)N)C(=O)N[C@@H](CCCCN)C(=O)O (H-FPVGRVHRLLRK-OH) | > 173 µM | – | – | MIC [7]: > 173 µM; HC50 ([5]; red blood cells): > 270 µM
9 | CC[C@H](C)[C@H](NC(=O)CN)C(=O)NCC(=O)N[C@@H](CCCCN)C(=O)N[C@@H](Cc1ccccc1)C(=O)N[C@@H](CC(C)C)C(=O)N[C@@H](Cc1cnc[nH]1)C(=O)N[C@@H](CO)C(=O)N[C@@H](C)C(=O)N[C@@H](CCCCN)C(=O)N[C@@H](CCCCN)C(=O)N[C@@H](Cc1c[nH]c2ccccc12)C(=O)NCC(=O)N[C@@H](CCCCN)C(=O)N[C@@H](C)C(=O)N[C@@H](Cc1ccccc1)C(=O)N[C@H](C(=O)NCC(=O)N[C@@H](CCC(=O)O)C(=O)N[C@H](C(=O)N[C@@H](CCSC)C(=O)N[C@@H](CC(N)=O)C(=O)N[C@@H](CO)C(N)=O)[C@@H](C)CC)C(C)C (H-GIGKFLHSAKKWGKAFVGEIMNS-NH2) | – | – | – | MIC [6]: > 50 µM
10 | CSCC[C@H](NC(=O)[C@@H](NC(=O)[C@H](CCCNC(=N)N)NC(=O)[C@H](Cc1ccccc1)NC(=O)[C@H](C)NC(=O)[C@H](C)NC(=O)[C@H](CCCCN)NC(=O)[C@H](CCCNC(=N)N)NC(=O)[C@H](Cc1ccccc1)NC(=O)[C@H](C)NC(=O)[C@@H]1CCCN1C(=O)[C@@H](N)CCCNC(=N)N)C(C)C)C(=O)N[C@@H](CCCNC(=N)N)C(=O)N[C@@H](C)C(=O)N[C@@H](CS)C(=O)N[C@H](C(N)=O)C(C)C (H-RPAFRKAAFRVMRACV-NH2) | – | – | > 1300 µM | MIC [2]: 4 µM (≈ 7.51 µg/mL)
11 | N=C(N)NCCC[C@H](NC(=O)[C@H](Cc1c[nH]c2ccccc12)NC(=O)[C@H](CCCNC(=N)N)NC(=O)[C@H](Cc1c[nH]c2ccccc12)NC(=O)[C@@H](N)CCCNC(=N)N)C(=O)N[C@@H](Cc1c[nH]c2ccccc12)C(N)=O (H-RWRWRW-NH2) | 16 µM (≈ 16.7 µg/mL) | 8 µM (≈ 8.35 µg/mL) | – | HC50 ([5]; erythrocyte): 210 µM
12 | N=C(N)NCCC[C@H](NC(=O)[C@H](Cc1c[nH]c2ccccc12)NC(=O)[C@H](CCCNC(=N)N)NC(=O)[C@H](Cc1c[nH]c2ccccc12)NC(=O)[C@H](CCCNC(=N)N)NC(=O)[C@H](Cc1c[nH]c2ccccc12)NC(=O)[C@@H](N)CCCNC(=N)N)C(=O)N[C@@H](Cc1c[nH]c2ccccc12)C(N)=O (H-RWRWRWRW-NH2) | 9.6 µM (≈ 13.3 µg/mL) | 5.1 µM (≈ 7.07 µg/mL) | – | HC50 ([5]; erythrocyte): 100 µM
13 | NC(N)=NCCC[C@H](NC(=O)[C@@H](N)Cc1c[nH]c2ccccc12)C(=O)N[C@@H](Cc1c[nH]c2ccccc12)C(=O)OCc1ccccc1 (H-Trp-Arg-Trp-OBn) | 140 µM (≈ 89.1 µg/mL) | 9 µM (≈ 5.73 µg/mL) | – | –
14 | CCCCCCCCCCC(=O)NCC(=O)N[C@H](C(=O)NCC(=O)N[C@@H](CCCCN)C(=O)N[C@@H](Cc1ccccc1)C(=O)N[C@@H](CC(C)C)C(=O)N[C@@H](Cc1cnc[nH]1)C(=O)N[C@@H](CO)C(=O)N[C@@H](C)C(=O)N[C@@H](CCCCN)C(=O)N[C@@H](CCCCN)C(=O)N[C@@H](Cc1c[nH]c2ccccc12)C(=O)NCC(=O)N[C@@H](CCCCN)C(=O)N[C@@H](C)C(=O)N[C@@H](Cc1ccccc1)C(=O)N[C@H](C(=O)NCC(=O)N[C@@H](CCC(=O)O)C(=O)N[C@H](C(=O)N[C@@H](CCSC)C(=O)N[C@@H](CC(N)=O)C(=O)N[C@@H](CO)C(N)=O)[C@@H](C)CC)C(C)C)[C@@H](C)CC (Undecanoyl-GIGKFLHSAKKWGKAFVGEIMNS-NH2) | – | – | – | MIC [6]: 6.25 µM (≈ 16.7 µg/mL)
15 | CC[C@H](C)[C@H](NC(=O)CN)C(=O)NCC(=O)N[C@@H](C)C(=O)N[C@H](C(=O)N(CC(=O)N[C@@H](CCCCN)C(=O)N[C@H](C(=O)N[C@@H](CC(C)C)C(=O)N[C@H](C(=O)N[C@H](C(=O)NCC(=O)N(CC(=O)N1CCC[C@H]1C(=O)N[C@@H](C)C(=O)N[C@@H](CC(C)C)C(=O)N[C@H](C(=O)N[C@@H](CO)C(=O)N[C@@H](Cc1c[nH]c2ccccc12)C(=O)N(CC(=O)N[C@@H](CCCCN)C(=O)N[C@@H](CCCNC(=N)N)C(=O)N[C@@H](CCCCN)C(=O)N[C@@H](CCCNC(=N)N)C(=O)N[C@@H](CCC(N)=O)C(=O)N[C@@H](CCC(N)=O)C(=O)O)Cc1ccccc1)[C@@H](C)CC)Cc1ccccc1)[C@@H](C)O)[C@@H](C)O)C(C)C)Cc1ccccc1)C(C)C [MELITTIN PEPTOID F] (H-GIGAV[Nphe]KVLTTG[Nphe]PALISW[Nphe]KRKRQQ-OH) | 4 µM (≈ 11.8 µg/mL) | 2 µM (≈ 5.9 µg/mL) | > 100 µM | –
16 | CC[C@H](C)[C@H](NC(=O)[C@H](CCCCN)NC(=O)[C@@H](NC(=O)[C@H](CCC(N)=O)NC(=O)[C@@H](N)CCCNC(=N)N)[C@@H](C)CC)C(=O)N[C@@H](Cc1c[nH]c2ccccc12)C(=O)N[C@@H](Cc1ccccc1)C(=O)N[C@@H](CCC(N)=O)C(=O)N[C@@H](CC(N)=O)C(=O)N[C@@H](CCCNC(=N)N)C(=O)N[C@@H](CCCNC(=N)N)C(=O)N[C@@H](CCSC)C(=O)N[C@@H](CCCCN)C(=O)N[C@@H](Cc1c[nH]c2ccccc12)C(=O)N[C@@H](CCCCN)C(=O)N[C@@H](CCCCN)C(N)=O [PENETRATIN] | 2 µM (≈ 4.49 µg/mL) | 1 µM (≈ 2.25 µg/mL) | > 200 µM | –
